Laboratory results published in US20220167645A1, “METHODS OF IMPROVING FISH FEED CONVERSION RATE AND SURVIVAL” (AQUINOVO LTD., priority 2019, published 2022).
Numbered stars: 1 amine (or outer) side, 2 acyl side, 3 side chain; on linkers, the order of the positions; unused ones are H or OH. Square brackets hold non-standard residues; d marks the D form. Suc = O=C(CCC(=O)[*:2])[*:1]; NMeV = CN[C@H](C(=O)O)C(C)C; βAla = NCCC(=O)O

Experiments:
[1] = AN6 half-life in blood and residual peptide in muscle and plasma; settings: in vivo
[2] = test system: Tilapia fish; experiment: Experiment #2: tilapia fed AN6-coated feed 60-150 dph (growth, biomass, FCR, intestine weight); type: in vivo
Procedure: MeM (powder, manufactured by Bern Aqua), Nanolis P1, P2 (pellet sizes of 0.8-1 mm, 1-1.5 mm, respectively, manufactured by Ocialis) and Tilaphi 1, 2 & 3 (pellet sizes of 1-1.5 mm, 2 mm, 3-5.5 mm, respectively, manufactured by Ocialis) were used as basic regular feed. The basic feed was coated according to the following general procedure: 9 ml or 3 ml of Tris-HCl solution (50 mM, pH=8.8) were diluted to 60 ml with distilled H2O. For AN6-containing feed preparation, desired amounts of AN6 peptide (a TK antagonist having the sequence Succ-Asp-Ser-D-Trp—N(Me)Val-βAla-Leu-Met-NH2, SEQ ID NO. 6) were dissolved in the Tris-HCl solution. Then, each of the various solutions was mixed with 3 Kg of basic feed pellets using an electric mixer. The peptide-feed mixtures where then dried either in oven at 40° C. for 24 hours or in drying drum for few hours to form coated pellets. The total amount of each feed was 3 Kg.
Tilapia fish (n=1440) have been raised from day 60 to day 119 post-hatch in indoor tanks and then transferred to outdoor tanks (120-150 dph) followed by cages in ponds (150-243 dph). The fish were fed to apparent satiation 2-4 times a day, for 90 days (60-150 dph) either with regular feed (Feed A, Group C, n=60 in 8 repeats); feed coated with AN6 peptide solution in ratio of 5 mg AN6/Kg feed (5 ppm, Feed B, Group D, n=60 in 8 repeats); or feed coated with AN6 peptide solution in ratio of 10 mg AN6/Kg feed (Feed C, Group E, n=60 in 8 repeats).
During the experimental period, the average fish weight was measured, and the daily growth rate was calculated by dividing the average weight gained in each measuring period by the number of days since the last measurement. […] However, from age 200 dph, a considerable jump in fish performance and FCR was observed, reaching a maximal level at the last measurement point (243 dph, +8.4% average weight, +18% weight gain, +10% total biomass; FIG. 1, experiment #2 and FIG. 3B). The effect on growth was evident even when considering differences in initial body weight (FIG. 2B).
(§1) In order to determine the efficiency of feed conversion into fish substance in experiments (#1, #2, #3), FCR values which reflect the amount of feed needed to grow a kilogram fish, were calculated for each period and for the entire fish growth period. In order to determine the amount of consumed feed, the amount of feed provided was measured daily for each tank and the leftovers were collected, weighted and subtracted from the total amount of feed. Dead fish were removed every day before each feeding and then counted and weighed for accurate calculation of feed intake and FCR. It is to be noted that high mortality can still influence FCR values since feed eaten by fish that have later died cannot be subtracted from the total feed consumed and on the other hand periodic total fish weight gained is underestimated (dead fish are not included). Three FCR values were calculated according to the following formulas:
At the end of the experiment described in example 3 (experiment #2), 6 fish from each cage/tank (3 females and 3 males, n=24 per treatment group) were sacrificed and whole intestine was removed and weighted.

[3] = test system: Tilapia fish; type: in vivo
Source text: At the end of each of the experiments described in examples 2, 3 and 5 (#1, #2, #3), a sample of fish from each treatment group was sacrificed and dissected for measurements of internal parts as indicated in Table 9.

[4] = test system: TK receptors (tac1, tac2, tac3); experiment: TK receptor mRNA expression following AN6 treatment; type: in vivo; settings: different parts of the gut and skin
[5] = test system: Tilapia fish; experiment: Feed conversion rate (FCR) calculated over experiments #1, #2, #3; type: in vivo
Procedure: as §1
Specifically, improved FCR is observed 30 to 90 days after treatment initiation and can last at least 100 days after treatment stopped.

[6] = 10 mg/Kg feed, Group E, last measurement point 243 dph, vs control
[7] = 10 ppm AN6, experiments 2 & 3, vs control

Succ-Asp-Ser- D-Trp -N(Me)Val-βAla-Leu-Met-NH2 (Suc-DS[dW][NMeV][βAla]LM-NH2; SMILES CSCC[C@H](NC(=O)[C@H](CC(C)C)NC(=O)CCNC(=O)[C@H](C(C)C)N(C)C(=O)[C@@H](Cc1c[nH]c2ccccc12)NC(=O)[C@H](CO)NC(=O)[C@H](CC(=O)O)NC(=O)CCC(=O)O)C(N)=O) [AN6]
cleared from blood [1]: ~4.5 min
half-life time in blood [1]: very short
peptide residual in muscle and blood after treatment [1]: no peptide residual is detected
residual peptide in muscle and plasma following treatment [1]: non residual peptide was observed
increase in fish average weight and growth rate ([2]; 10 mg/Kg feed, Group E (fed 60-150 dph), age 95 to 165 dph, vs control): ~+3%
average weight [2, 6]: +8.4%
total biomass [2, 6]: +10%
weight gain [2, 6]: +18%
number of fish in the upper 6.5th decile ([2]; 10 mgAN6/Kg feed, Group E (control 2.8%)): 7.2%
number of fish in the lower 2th decile ([2]; 10 mgAN6/Kg feed, Group E (control 18.4%)): 13.2%
weight gain of male and female populations analysed separately ([2]; FIG. 4, 5 and 10 mg/Kg for 90 days (60-150 dph)): better performance than control
ratio between intestine weight and fish weight (ISI) ([2]; male fish treated with 10 mg AN6/Kg feed, end of experiment #2, vs control, FIG. 6): +21%
female fillet ratio [3, 7]: +3.38%
male fillet ratio [3, 7]: +5.6%
gonad size and histology ([3]; in vivo): No significant effect
kidney, liver and fat weight and rates ([3]; in vivo): no effect
expression of all TK receptors (tac1, tac2, tac3) [4]: altered
FCR-growth relationship ([5]; 5, 10 mg and 30 mg AN6/Kg feed in other cases (experiments #2 and #3), with decrease in feed intake): improved FCR which did not coincide with improved growth
FCR in adult fish ([5]; all AN6 peptide treatments, FIGS. 5A, 5B, 10, 11, 12): significantly improves FCR
duration of improved FCR after treatment stopped ([5]; in vivo): at least 100 days
